Values quoted from earlier work as cited in patent US8263578B2, “Stable bortezomib formulations” (InnoPharma, Inc., priority 2010, dated 2012).
Read-outs that look alike come from different tables or passages of the source.

Settings: 25° C.

degraded (0.5 mg/mL in ethanol:normal saline solution (2:98, pH 2.8), 1 month): 20%
degraded (propylene glycol:ethanol:water (50:10:40), 8 months): 20%
SMILES: CC(C)C[C@H](NC(=O)[C@H](Cc1ccccc1)NC(=O)c1cnccn1)B(O)O [Bortezomib, N-(2-pyrazine) carbonyl-L-phenylalanine-L-leucine boronic acid]
